Results on nine molecules are retold here after US12389930B2, “Breast milk-derived Lactobacillus plantarum and use thereof” (Beijing Sanyuan Foods Co., Ltd., priority 2020, dated 2025).

Converted amounts (≈) assume the structure as drawn.

This assay concerns Lactobacillus plantarum P6. Put plainly: Drug resistance determination (E-test strips, MIC). Type of assay: cell-based. Details: key to Susceptibility class of P6 to the antibiotic: S: susceptible; I: intermediate; R: resistance. To be noted: for MIC: Lactiplantibacillus plantarum, P6, read-out: Minimum inhibitory concentration MIC; for Susceptibility of P6 to the antibiotic (in words): summary of Table 3. The procedure: The cultured P6 bacteria solution was activated for three generations, and streaked on the MRS solid medium plate, which was then cultured in an anaerobic incubator at 37° C. for 24 hours. A single colony was picked up and dissolved in normal saline to prepare a suspension equivalent to 0.5 […] concentration, which was then coated on an MH solid medium. After drying, ten E-test strips were attached onto the MH solid medium, and cultured at 37° C. for 24-48 hours. The MIC value (minimum inhibitory concentration value) was determined according to the inhibition zone diameter. Escherichia coli ATCC25922 and Staphylococcus aureus ATCC25923 were used as quality-control strains. Quality-control strains were used as control for each batch test, and the MIC of the quality-control strains was required to be within the range specified by CLSI (Clinical and Laboratory Standards […]). An MH solid plate without antibiotics was used as blank control.

Setting [1] is: E-test, MH solid medium, 37° C., 24-48 hours.

On to `NCC[C@H](O)C(=O)N[C@@H]1C[C@H](N)[C@@H](O[C@H]2O[C@H](CN)[C@@H](O)[C@H](O)[C@H]2O)[C@H](O)[C@H]1O[C@H]1O[C@H](CO)[C@@H](O)[C@H](N)[C@H]1O` [amikacin], for which the “Susceptibility of P6 to the antibiotic (in words)” value (“Susceptibility of P6” for short) is on record as “extremely susceptible”. Moreover, the MIC under setting [1] was 2 µg/mL (≈ 3.42 µM).
In the same order, the values of `CC1(C)S[C@@H]2[C@H](NC(=O)[C@H](N)c3ccccc3)C(=O)N2[C@H]1C(=O)O` [ampicillin] are “extremely susceptible” and 1.5 µg/mL (≈ 4.29 µM).
In the same order, the values of `CC[C@H]1OC(=O)[C@H](C)[C@@H](O[C@H]2C[C@@](C)(OC)[C@@H](O)[C@H](C)O2)[C@H](C)[C@@H](O[C@@H]2O[C@H](C)C[C@H](N(C)C)[C@H]2O)[C@](C)(O)C[C@@H](C)CN(C)[C@H](C)[C@@H](O)[C@]1(C)O` [azithromycin, Azithromycin] are “extremely susceptible” and 0.094 µg/mL (≈ 0.126 µM).
In the same order, the values of `CO/N=C(\C(=O)N[C@@H]1C(=O)N2C(C(=O)O)=C(CSc3nc(=O)c(=O)[nH]n3C)CS[C@H]12)c1csc(N)n1` [ceftriaxone] are “extremely susceptible” and 0.125 µg/mL (≈ 0.225 µM).
As to `O=C(N[C@H](CO)[C@H](O)c1ccc([N+](=O)[O-])cc1)C(Cl)Cl` [chloramphenicol], the “Susceptibility of P6” value is reported as “intermediately susceptible”. Further, the MIC under setting [1] amounted to 16 µg/mL (≈ 49.5 µM).
As for `CCC[C@@H]1C[C@@H](C(=O)N[C@@H]([C@H]2O[C@H](SC)[C@H](O)[C@@H](O)[C@H]2O)[C@H](C)Cl)N(C)C1` [clindamycin], the MIC under setting [1] was 0.016 µg/mL (≈ 0.0376 µM).
For the molecule `CC[C@H]1OC(=O)[C@H](C)[C@@H](O[C@H]2C[C@@](C)(OC)[C@@H](O)[C@H](C)O2)[C@H](C)[C@@H](O[C@@H]2O[C@H](C)C[C@H](N(C)C)[C@H]2O)[C@](C)(O)C[C@@H](C)C(=O)[C@H](C)[C@@H](O)[C@]1(C)O` [erythromycin], the “Susceptibility of P6” value is reported as “extremely susceptible”. Moreover, the MIC under setting [1] came out at 0.38 µg/mL (≈ 0.518 µM).
Regarding `CC1(C)S[C@@H]2[C@H](NC(=O)Cc3ccccc3)C(=O)N2[C@H]1C(=O)O` [penicillin G], the “Susceptibility of P6” value was “resistant”. In addition, the “Minimum inhibitory concentration MIC” value under setting [1] came to 32 µg/mL (≈ 95.7 µM). Besides, the “Susceptibility class of P6 to the antibiotic” value (E-test, class after the slash in the MIC cell) is on record as “R”.
For `CN(C)[C@@H]1C(O)=C(C(N)=O)C(=O)[C@@]2(O)C(O)=C3C(=O)c4c(O)cccc4[C@@](C)(O)[C@H]3C[C@@H]12` [tetracycline], the MIC under setting [1] was determined as 256 µg/mL (≈ 576 µM).
